{
  "source": "patent US6649355B2",
  "about": "“Lipoxygenase proteins and nucleic acids” (priority 1998, dated 2003)",
  "key": {"[1]": {"tested_on": "peroxisome proliferator-activated receptor, PPAR-a", "settings": "cited from earlier work"}, "[2]": {"biological_target": "T1, 15-Lox-2 (second type of human 15S-lipoxygenase) (Homo sapiens, UniProt O15296, Q656R)", "T1 construct": "Initially, five full length clones were expressed in HEK 293 cells; expressed in transfected cells; host or cells: HEK 293 cells, transient transfection (pCDNA3 or pCR3); sonicated cells incubated with substrate", "T1 sequence (O15296 1-676 Q656R)": "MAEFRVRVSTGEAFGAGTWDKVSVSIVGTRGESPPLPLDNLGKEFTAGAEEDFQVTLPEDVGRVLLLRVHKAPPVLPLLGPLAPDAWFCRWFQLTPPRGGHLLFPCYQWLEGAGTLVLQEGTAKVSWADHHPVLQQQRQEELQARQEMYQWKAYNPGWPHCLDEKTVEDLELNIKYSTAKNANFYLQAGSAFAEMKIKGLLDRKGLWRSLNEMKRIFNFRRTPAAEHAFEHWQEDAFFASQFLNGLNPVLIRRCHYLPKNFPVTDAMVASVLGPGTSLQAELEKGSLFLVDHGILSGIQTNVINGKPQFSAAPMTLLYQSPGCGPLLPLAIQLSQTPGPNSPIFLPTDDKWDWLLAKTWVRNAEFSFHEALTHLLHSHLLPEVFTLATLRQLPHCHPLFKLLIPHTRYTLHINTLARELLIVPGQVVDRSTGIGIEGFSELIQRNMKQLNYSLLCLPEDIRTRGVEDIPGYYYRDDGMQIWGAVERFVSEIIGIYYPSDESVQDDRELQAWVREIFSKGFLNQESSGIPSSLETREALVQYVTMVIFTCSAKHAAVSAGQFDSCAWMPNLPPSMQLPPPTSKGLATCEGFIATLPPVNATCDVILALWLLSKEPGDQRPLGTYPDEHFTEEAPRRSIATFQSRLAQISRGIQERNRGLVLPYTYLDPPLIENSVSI", "assay": "Lipoxygenase metabolism of 14C substrates by the new 15S-lipoxygenase expressed in HEK 293 cells, HPLC analysis", "assay_type": "biochemical", "settings": "2 mM added; [14C]arachidonic acid as substrate", "description": "(§1) The PCR products corresponding to the open reading frame of the cDNA were subcloned into the pCDNA3 vector (Invitrogen), or in some experiments ligated directly into pCR3 (Invitrogen), and expressed by transient transfection in human embryonic kidney (HEK) 293 cells as described (Funk et al. (1996) J. Biol. Chem. 271, 23338-23344)."}, "[3]": {"tested_on": "8S-lipoxygenase expression in mouse skin", "assay": "Effect of topical phorbol ester on 8S-lipoxygenase expression in mouse skin (activity assay, Northern, Western, immunohistochemistry)", "assay_type": "in vivo", "settings": "for induction of 8S-lipoxygenase in skin: black Swiss mixed breed (outbred) pups, dorsal skin, topical", "method": "FIG. 9A: Normal-phase HPLC analysis of 8S-lipoxygenase activity in homogenates of back skin of 7-8-day-old black Swiss pups following 24 hr treatment with vehicle (acetone) or phorbol ester ([…]).\nPhorbol ester (PMA, 10 nmol) dissolved in […] of acetone was applied topically onto dorsal skin of 6-7-day-old mice. At 21-24 h after PMA-treatment, the mice were euthanized, and epidermis was prepared from the frozen dorsal skin as previously described (Hughes et al. (1991) Biochim. Biophys. Acta 1081:347-354). The frozen epidermis was dropped into guanidinium thiocyanate solution, the lysis buffer from the RNeasy RNA extraction kit (QIAGEN). After a brief sonication using an ultrasonic probe (2 sec, twice), total RNA was extracted according to the manufacturer's instructions. Approximately […] of total RNA was recovered in […] of water. Twenty microliter aliquots were used in […] reactions for first strand cDNA synthesis using an oligo-dT-adaptor primer (Brash et al. (1996) J. Biol. Chem. 271:20949-20957). One microliter aliquots of CDNA were used directly in PCR reactions.\nPoly(A)+RNA was prepared from PMA- or acetone-treated frozen dorsal skin using TRI REAGENT® (Molecular Research Center, Inc.) and Oligotex™ (Qiagen) according to the manufacturers' instructions. The poly(A)^+ RNA was electrophoresed in 1% agarose/formaldehyde gel and blotted to a Hybond-H^+ nylon membrane (Amersham). The membrane was hybridized with ^32P-labeled DNA probe (complementary with a 0.6-kb EcoRV/BamHI fragment of mouse epidermal 8S-lipoxygenase) prepared using the Multiprime DNA labeling kit and Rapid-hybridization buffer (Amersham), and then washed according to the manufacturer's specifications. Blots were exposed to Fuji x-ray film at −80° C. Mouse cyclophilin cDNA was used as a house-keeping gene to access loading of RNA.\nAfter quantitation by Bradford assay (Bio-Rad), protein was separated by SDS polyacrylamide gel electrophoresis (SDS-PAGE) and then transferred electrophoretically to Hybond ECL nitrocellulose membranes (Amersham). These were probed using a rabbit polyclonal antibody raised against the human 15-Lox-2. This antibody recognises 15-Lox-2 and the mouse 8S-lipoxygenase, but not the human reticulocyte type of 15S-lipoxygenase, as more fully described below. Donkey anti-rabbit Ig linked with horseradish peroxidase (Amersham) was the secondary antibody. Specifically bound protein was detected by chemiluminescence using the ECL Western blotting detection reagents (Amersham).\nThe dorsal and tail skin of six to seven (6-7)-day-old mice were treated with acetone or PMA (10 nmol for dorsal skin, 2 nmol for tail skin). After 24 h, the animals were euthanized and the dorsal and tail skin were washed with soap and then rinsed thoroughly with water. […]"}, "[4]": {"biological_target": "T2, mouse 8S-lipoxygenase (8-Lox) (Mus musculus, UniProt O35936)", "T2 sequence (O35936 1-677)": "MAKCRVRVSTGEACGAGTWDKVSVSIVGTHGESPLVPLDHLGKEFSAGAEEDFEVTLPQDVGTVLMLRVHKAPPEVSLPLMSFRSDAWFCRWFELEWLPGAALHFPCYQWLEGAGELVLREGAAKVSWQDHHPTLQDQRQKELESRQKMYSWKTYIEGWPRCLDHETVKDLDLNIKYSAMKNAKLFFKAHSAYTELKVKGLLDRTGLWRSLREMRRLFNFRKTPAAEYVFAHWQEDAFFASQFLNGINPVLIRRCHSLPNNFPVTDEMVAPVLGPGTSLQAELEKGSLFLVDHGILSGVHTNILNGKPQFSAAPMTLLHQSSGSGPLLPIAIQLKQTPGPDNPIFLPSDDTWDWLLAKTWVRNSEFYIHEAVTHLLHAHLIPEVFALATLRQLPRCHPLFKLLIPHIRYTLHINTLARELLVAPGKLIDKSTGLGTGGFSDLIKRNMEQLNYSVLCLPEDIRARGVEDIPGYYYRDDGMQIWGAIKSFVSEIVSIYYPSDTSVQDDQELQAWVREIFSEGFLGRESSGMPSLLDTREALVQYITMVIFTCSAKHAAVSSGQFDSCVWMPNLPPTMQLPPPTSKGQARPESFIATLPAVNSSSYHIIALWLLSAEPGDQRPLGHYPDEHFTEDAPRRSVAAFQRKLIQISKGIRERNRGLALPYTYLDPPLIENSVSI", "assay_type": "biochemical"}, "[5]": {"biological_target": "T3, blood cell 15S-lipoxygenase (15-Lox-1) (Homo sapiens, UniProt P16050)", "T3 construct": "expressed in transfected cells", "T3 sequence (P16050 1-662)": "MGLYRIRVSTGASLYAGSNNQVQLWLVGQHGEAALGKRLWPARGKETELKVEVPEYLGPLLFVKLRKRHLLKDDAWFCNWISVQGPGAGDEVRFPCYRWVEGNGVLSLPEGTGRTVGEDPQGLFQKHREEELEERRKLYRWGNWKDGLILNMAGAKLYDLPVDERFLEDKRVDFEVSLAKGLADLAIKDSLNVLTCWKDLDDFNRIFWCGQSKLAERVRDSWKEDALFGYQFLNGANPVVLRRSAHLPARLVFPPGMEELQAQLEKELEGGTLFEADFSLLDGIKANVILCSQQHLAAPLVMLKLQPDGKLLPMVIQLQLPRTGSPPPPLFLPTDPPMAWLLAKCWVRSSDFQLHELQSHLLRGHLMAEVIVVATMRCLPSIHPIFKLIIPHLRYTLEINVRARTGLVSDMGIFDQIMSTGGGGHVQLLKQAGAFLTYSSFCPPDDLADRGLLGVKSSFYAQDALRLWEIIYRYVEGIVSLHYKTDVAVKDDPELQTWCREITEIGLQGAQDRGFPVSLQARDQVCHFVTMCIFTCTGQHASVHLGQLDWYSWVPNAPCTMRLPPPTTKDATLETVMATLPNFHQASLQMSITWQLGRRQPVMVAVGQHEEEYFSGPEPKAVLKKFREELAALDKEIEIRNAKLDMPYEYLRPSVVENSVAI", "assay": "Lipoxygenase metabolism of 14C substrates by the blood cell 15S-lipoxygenase analysed in the same experiments", "assay_type": "biochemical", "settings": "applicants' experiments", "description": "as §1"}},
  "data": [
    {"smiles": "CCCCC/C=C\\C/C=C\\C=C\\[C@@H](O)C/C=C\\CCCC(=O)O", "note": "[8S-HETE]", "values": [
      {"measurement": "activity at PPAR-a", "setting": "[1]", "result": "strong activator"}
    ]},
    {"smiles": "Nc1ncnc2c1ncn2[C@@H]1O[C@H](COP(=O)(O)OP(=O)(O)OP(=O)(O)O)[C@@H](O)[C@H]1O", "note": "[ATP]", "values": [
      {"measurement": "effect of addition to the incubation media on enzymatic activity", "setting": "[2]", "result": "no significant effect"}
    ]},
    {"smiles": "CCCCCCCCCCCCCC(=O)O[C@@H]1[C@@H](C)[C@@]2(O)[C@@H](C=C(CO)C[C@]3(O)C(=O)C(C)=C[C@@H]23)[C@@H]2C(C)(C)[C@]12OC(C)=O", "note": "[PMA, Phorbol-12-myristate-13-acetate]", "values": [
      {"measurement": "induction of 8S-lipoxygenase activity in skin", "setting": "[3]; Sencar strain, 6-10-day-old pups, high constitutive activity", "result": "little extra induction"},
      {"measurement": "induction of 8S-lipoxygenase in skin", "setting": "[3]; 24 h", "result": "strongly induced"},
      {"measurement": "induction of 8S-lipoxygenase in skin", "setting": "[3]; 24 h, listed as phorbol ester", "result": "strong induction"},
      {"measurement": "histological response of skin (epidermis)", "setting": "[3]; black Swiss, dorsal and tail skin, topical in acetone, 24 h", "result": "marked hyperproliferative response"}
    ]},
    {"smiles": "CCCCC/C=C\\C/C=C\\C/C=C\\C/C=C\\CCCC(=O)O", "note": "[arachidonic acid]", "values": [
      {"measurement": "added arachidonic acid converted to 8S-HPETE", "setting": "[4]", "result": "30-40%"},
      {"measurement": "product formed from the substrate", "setting": "[4]", "result": "exclusively to 8S-hydroperoxyeicosatetraenoic acid"}
    ]},
    {"smiles": "[Ca+2]", "note": "[calcium]", "values": [
      {"measurement": "effect of addition to the incubation media on enzymatic activity", "setting": "[2]", "result": "no significant effect"}
    ]},
    {"smiles": "CCCCC/C=C\\C/C=C\\CCCCCCCC(=O)O", "note": "[linoleic acid]", "values": [
      {"measurement": "extent of metabolism compared with arachidonic acid", "setting": "[5]", "result": "metabolized more extensively than arachidonic acid"},
      {"measurement": "product formed from the substrate", "setting": "[4]", "result": "exclusively to 9S-HODE"}
    ]}
  ]
}
